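96-well plates; 48 h exposure; 5 concentrations. Endpoints by linear interpolation between flanking doses. Not reached: highest tested concentration assigned. GI50 marks 50% less growth. At the TGI there is no net growth.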
What was measured:
Assay in all cases: inhibition of tumour cell growth, NCI panel, 48 h
PC-3 prostate = test system: PC-3 prostate
COLO 205 colon = test system: COLO 205 colon
SK-OV-3 ovarian = test system: SK-OV-3 ovarian
IGROV1 ovarian = test system: IGROV1 ovarian
SK-MEL-5 melanoma = test system: SK-MEL-5 melanoma
SNB-19 CNS = test system: SNB-19 CNS
U251 CNS = test system: U251 CNS
SK-MEL-28 melanoma = test system: SK-MEL-28 melanoma
ACHN renal = test system: ACHN renal
MALME-3M melanoma = test system: MALME-3M melanoma

Structure (SMILES) | GI50 (PC-3 prostate) [µM] | TGI (PC-3 prostate) [µM] | GI50 (COLO 205 colon) [µM] | TGI (COLO 205 colon) [µM] | GI50 (SK-OV-3 ovarian) [µM] | TGI (SK-OV-3 ovarian) [µM] | GI50 (IGROV1 ovarian) [µM] | TGI (IGROV1 ovarian) [µM] | GI50 (SK-MEL-5 melanoma) [µM] | TGI (SK-MEL-5 melanoma) [µM] | GI50 (SNB-19 CNS) [µM] | TGI (SNB-19 CNS) [µM] | TGI (U251 CNS) [µM] | TGI (SK-MEL-28 melanoma) [µM] | TGI (ACHN renal) [µM] | TGI (MALME-3M melanoma) [µM] | GI50 (U251 CNS) [µM] | GI50 (SK-MEL-28 melanoma) [µM] | GI50 (ACHN renal) [µM]
COc1cccc(-c2nc3cc(NC(=O)c4ccc(Cl)c(C#N)c4)ccc3o2)c1 | 2.96 | > 100 | 5.77 | > 100 | 2.57 | 5.56 | 7.55 | > 100 | 1.79 | 4.2 | 3.18 | > 100 |  |  |  |  |  |  | 
CN1N=CSC12C(=O)N(c1ccccc1)C(=O)N2c1ccccc1 (stereo unspecified) |  |  |  | > 100 |  | > 100 |  | > 100 |  | > 100 |  | > 100 | > 100 | > 100 | > 100 | > 100 |  |  | 
COc1cc(Cl)cc(=O)c(O)c1OC |  |  |  | > 81.2 |  | > 100 |  |  |  |  |  | > 100 | > 100 | > 100 | > 100 | > 100 |  |  | 
O=c1cc(-c2cccs2)[nH]c2cc3c(cc12)OCO3 |  |  |  | > 100 |  | 8.14 |  | > 53.4 |  | > 31.9 |  | > 100 | > 60.2 | > 100 | > 100 | > 100 |  |  | 
O=C(/C=C/c1ccccc1)Oc1cccc2cccnc12 |  |  |  | 21.1 |  | > 100 |  | 32.4 |  | 24 |  | > 75.2 | 30.8 | > 86.3 | > 100 | 11.4 |  |  | 
O=C1C=CC(=O)c2c1ccc1c3ccccc3n(Cc3ccc([N+](=O)[O-])cc3)c21 |  | > 100 |  | > 100 |  | > 100 |  | > 100 |  | > 100 |  | > 100 | > 100 | > 100 | > 100 |  |  |  | 
COC(=O)C1=CO[C@@H](OC2CC(CO)C(O)C(O)C2O)[C@@H]2[C@@H](C)[C@@H](OC(=O)/C=C/c3ccccc3)[C@@H](O)[C@H]12 (stereo partly specified) (tested in a mixture with another compound) |  |  |  | > 100 |  | > 100 |  | > 100 |  | > 100 |  |  | > 100 | > 100 | > 100 | > 100 |  |  | 
Cn1c(=O)nc2n(-c3ccc(O)cc3)c3ccccc3nc-2c1=O |  |  |  | > 100 |  | > 100 |  | > 100 |  | > 100 |  | > 100 | > 100 | > 100 | > 100 | 69.4 |  |  | 
C[N+](C)(C)CCC(=O)CC[N+](C)(C)C |  |  |  | 31.8 |  | > 100 |  | > 100 |  | > 100 |  | > 100 | > 100 | 50.1 | 31.3 | 47.6 |  |  | 
COc1cc2c(c3c1c(=O)c1ccccc1n3C)C=CC1(CCCC1)O2 |  |  |  | 27.6 |  | 38.4 |  | 28.4 |  | 25.6 |  | 35.2 | 31.9 | 28 | 32.7 | 37.8 |  |  | 
COC(=O)c1sc(C(=O)OC)c2c1CS(=O)C2 |  |  |  | > 100 |  | > 100 |  | > 100 |  | > 100 |  | > 100 | > 100 | > 100 |  | > 100 |  |  | 
N#CC(N)=Nc1ccccc1 |  |  |  | > 100 |  | > 100 |  | > 100 |  | > 100 |  | > 100 | > 100 | > 100 | > 100 | > 100 |  |  | 
O=C1C2C3C=C4c5ccccc5N(c5ccccc5)C4(C2C(=O)N1c1ccccc1)C1C(=O)N(c2ccccc2)C(=O)C31 (stereo unspecified) |  |  |  | > 100 |  |  |  |  |  |  |  | > 100 | > 100 | > 100 | > 100 | > 100 |  |  | 
O=C(COc1ccccc1Cl)N1N=C(c2ccc(Cl)cc2)CC1(O)c1ccccc1 (stereo unspecified) |  |  |  | > 100 |  | > 100 |  | > 100 |  |  |  | > 100 | > 100 | > 100 | > 100 | > 100 |  |  | 
CC1=C(C(=O)Nc2ccccc2C)C(c2ccc(Cl)cc2)C(C(=O)Nc2ccccc2C)=C(C)N1 |  |  |  | > 100 |  | > 100 |  | > 100 |  | > 100 |  | > 100 | > 100 | > 100 | > 100 | > 100 |  |  | 
CCSCCCSCCSCC |  | > 100 |  | > 100 |  | > 100 |  | > 100 |  | > 100 |  | > 100 | > 100 | > 100 |  |  |  |  | 
Cc1c(/C=N/NC(=O)c2ccccc2O)c(=O)n(-c2ccccc2)n1C |  |  |  | > 100 |  | > 100 |  | > 100 |  |  |  | > 100 | > 100 | > 100 | > 100 | > 100 |  |  | 
CCc1c(C#N)c(=O)[nH]c(=O)n1CCN1CCN(C(=O)NCCCCCCNC(=O)N2CCN(CCn3c(CC)c(C#N)c(=O)[nH]c3=O)CC2)CC1 |  |  |  | > 100 |  | > 100 |  | > 100 |  | > 100 |  | > 100 | > 100 |  | > 100 |  |  |  | 
O=C1C[C@H]2CCCN2[C@@H](c2ccccc2)C1 |  |  |  | > 100 |  | > 100 |  | > 100 |  | > 100 |  | > 100 | > 100 | > 100 | > 100 | > 100 |  |  | 
O=[N+]([O-])c1ccccc1N=Nc1c(O)[nH]c2cccc(C(F)(F)F)c12 |  | > 100 |  | > 100 |  | > 100 |  | 57.7 |  | > 100 |  | > 100 | > 100 | > 100 | 40.1 |  |  |  | 
Oc1cccc(Nc2nc3ccccc3c3occc23)c1 | 8.59 | 21 | 13.8 | 26.7 | 11.7 | 23.9 |  |  | 14 | 27 | 10.5 | 22.2 | 27.2 | 12.5 | 21.4 |  | 14 | 0.364 | 7.69
COC1=NCc2ccccc2-c2ccccc21 |  |  |  |  |  | > 100 |  |  |  | > 100 |  | > 100 | > 100 | > 100 | > 100 | > 100 |  |  | 
CN(C)c1cc2ccccc2oc1=O |  | > 100 |  | > 100 |  |  |  | > 100 |  | > 100 |  | > 100 | > 100 | > 100 | > 100 | > 100 |  |  | 
COc1ccc2nccc(C3=CCC4CCN(C(=O)c5ccccc5)C3C4)c2c1 (stereo unspecified) |  |  |  | > 100 |  | > 100 |  | > 100 |  | > 100 |  | > 100 | > 100 | > 100 |  | > 100 |  |  | 

— PubChem BioAssay (NCI)
